# Experimental data taken from patent US11572337B2, “Antibacterial agents: arylalkylcarboxamido phloroglucinols” (Rutgers, The State University of New Jersey, priority 2018, dated 2023).
# Legend:
# [1] = molecular target: E. coli RNA polymerase σ70 holoenzyme (Escherichia coli (strain K12), UniProt P0A8T7+P0A8V2); assay: Fluorescence-detected assay of inhibition of Escherichia coli RNA polymerase; assay type: biochemical; conditions: T4 N25 promoter DNA, RiboGreen fluorescence, read-out: RNAP-inhibitory activity E. coli RNAP IC50
# Description: (§1) Fluorescence-detected RNA polymerase assays with E. coli RNA polymerase were performed by a modification of the procedure of Kuhlman et al., 2004 [Kuhlman, P., Duff, H. & Galant, A. (2004) A fluorescence-based assay for multisubunit DNA-dependent RNA polymerases. Anal. Biochem. 324, 183-190]. Reaction mixtures contained […]: […] test salt, 75 nM E. coli RNA polymerase σ^70 holoenzyme, 20 nM 384 bp DNA fragment containing the bacteriophage T4 N25 promoter, 100 μM ATP, 100 μM GTP, 100 μM UTP, 100 μM CTP, 50 mM Tris-HCl, pH 8.0, 100 mM KCl, 10 mM MgCl2, 1 mM DTT, 10 μg/ml bovine serum albumin, and 5.5% glycerol. Reaction components other than DNA and NTPs were pre-incubated for 10 min at 37° C. Reactions were carried out by addition of DNA and incubation for 5 min at 37° C., followed by addition of NTPs and incubation for 60 min at 37° C. DNA was removed by addition of 1 μl 5 mM CaCl2 and 2 U DNaseI (Ambion, Inc.), followed by incubation for 90 min at 37° C. RNA was quantified by addition of 100 μI RiboGreen RNA Quantitation Reagent (Invitrogen, Inc.; 1:500 dilution in Tris-HCl, pH 8.0, 1 mM EDTA), followed by incubation for 10 min at 25° C., followed by measurement of fluorescence intensity [excitation wavelength=485 nm and emission wavelength=535 nm; QuantaMaster QM1 spectrofluorometer (PTI, Inc.)]. IC50 is defined as the concentration of inhibitor resulting in 50% inhibition of RNA polymerase activity.
# [2] = molecular target: S. aureus RNA polymerase core enzyme + S. aureus σA (Staphylococcus aureus (strain NCTC 8325 / PS 47), UniProt P47768+Q2G0N5); assay: Fluorescence-detected assay of inhibition of Staphylococcus aureus RNA polymerase; assay type: biochemical; conditions: T4 N25 promoter DNA, RiboGreen fluorescence, read-out: RNAP-inhibitory activity S. aureus RNAP IC50
# Description: as §1
# Fluorescence-detected RNA polymerase assays with S. aureus RNA polymerase were performed as in Example 2.1, using reaction mixtures containing (20 μl): 0-100 nM test salt, 75 nM S. aureus RNA polymerase core enzyme, 300 nM S. aureus σ^A, 20 nM 384 bp DNA fragment containing the bacteriophage T4 N25 promoter, 100 μM ATP, 100 μM GTP, 100 μM UTP, 100 μM CTP, 40 mM Tris-HCl, pH 8.0, 80 mM NaCl, 5 mM MgCl2, 2.5 mM DTT, and 12.7% glycerol. IC50 is defined as the concentration of inhibitor resulting in 50% inhibition of RNA polymerase activity.
# [3] = system: Staphylococcus aureus ATCC 12600; assay: Inhibition of growth of Staphylococcus aureus (spiral gradient endpoint MIC assay); assay type: cell-based; conditions: ATCC12600, Mueller-Hinton II cation-adjusted agar, 16 h at 37° C., read-out: in vitro antibacterial activity S. aureus ATCC12600 MIC
# Excerpt: Minimum inhibitory concentrations (MICs for Staphylococcus aureus ATCC 12600 were quantified using spiral gradient endpoint assays, essentially as described [Wallace, A. and Corkill, J. (1989) Application of the spiral plating method to study antimicrobial action. J. Microbiol. Meths. 10, 303-310; Paton, J., Holt, A., and Bywater, M. (1990) Measurement of MICs of antibacterial agents by spiral gradient endpoint compared with conventional dilution methods. Int. I Exp. Clin. Chemother. 3, 31-38; Schalkowsky S. (1994) Measures of susceptibility from a spiral gradient of drug concentrations. Adv. Exp. Med. Biol. 349, 107-120]. Assays employed exponential-gradient plates containing 150 mm×4 mm Mueller-Hinton II cation-adjusted agar and 0.4-100 μg/ml of test salt. Plates were prepared using an Autoplate 4000 spiral plater (Spiral Biotech, Inc.). Saturated overnight cultures were swabbed radially onto plates, and plates were incubated for 16 h at 37° C. For each culture, the streak length was measured using a clear plastic template (Spiral Biotech, Inc.), the test-salt concentration at the streak endpoint was calculated using the program SGE (Spiral Biotech, Inc.), and the MIC was defined as the calculated test-salt concentration at the streak endpoint.
Compound,IC50 [1],IC50 [2],MIC [3]
"O=C(NCc1ccc(Oc2ccc(F)cc2)cc1C(F)(F)F)c1c(O)cc(O)cc1O [Compound 0MTK155, N-(4-(4-fluorophenoxy)-2-(trifluoromethyl)benzyl)-2,4,6-trihydroxybenzamide]",0.79 µM,8.1 µM,8.1 µg/mL
"O=C(NCCc1ccc(Oc2ccc(F)cc2)cc1)c1c(O)cc(O)cc1O [Compound 0MTK156, N-(4-(4-fluorophenoxy)phenethyl)-2,4,6-trihydroxybenzamide]",0.82 µM,5.5 µM,8.3 µg/mL
"O=C(NCc1ccc(Oc2ccccc2)cc1C(F)(F)F)c1c(O)cc(O)cc1O [Compound 0MTK158, 2,4,6-trihydroxy-N-(4-phenoxy-2-(trifluoromethyl)benzyl)benzamide]",0.22 µM,1.8 µM,5.4 µg/mL
"O=C(NCc1ccc(Oc2ccc(F)cc2)c(Cl)c1)c1c(O)cc(O)cc1O [Compound 0MTK174, N-(3-chloro-4-(4-fluorophenoxy)benzyl)-2,4,6-trihydroxybenzamide]",0.41 µM,14 µM,8.6 µg/mL
"O=C(NCc1ccc(Oc2ccc(F)cc2)c(F)c1)c1c(O)cc(O)cc1O [Compound 0MTK175, N-(3-fluoro-4-(4-fluorophenoxy)benzyl)-2,4,6-trihydroxybenzamide]",0.45 µM,7 µM,8.6 µg/mL
"Cc1cc(Oc2ccc(F)cc2)ccc1CNC(=O)c1c(O)cc(O)cc1O [Compound 0MTK176, N-(4-(4-fluorophenoxy)-2-methylbenzyl)-2,4,6-trihydroxybenzamide]",0.39 µM,12 µM,5.3 µg/mL
"COc1cc(Oc2ccc(F)cc2)ccc1CNC(=O)c1c(O)cc(O)cc1O [Compound 0MTK178, N-(4-(4-fluorophenoxy)-2-methoxybenzyl)-2,4,6-trihydroxybenzamide]",0.61 µM,18 µM,7.8 µg/mL
"O=C(NCCc1ccc(Oc2cc(Cl)cc(Cl)c2)cc1)c1c(O)cc(O)cc1O [Compound 0MTK180, N-(4-(3,5-dichlorophenoxy)phenethyl)-2,4,6-trihydroxybenzamide]",0.83 µM,6.6 µM,1.8 µg/mL
"O=C(NCc1ccc(Oc2ccc(F)cc2)cc1Cl)c1c(O)cc(O)cc1O [Compound 0MTK181, N-(2-chloro-4-(4-fluorophenoxy)benzyl)-2,4,6-trihydroxybenzamide]",1.4 µM,> 60 µM,6.9 µg/mL
"O=C(NCCc1ccc(Oc2ccc(Cl)cc2)cc1)c1c(O)cc(O)cc1O [Compound 0MTK183, N-(4-(4-chlorophenoxy)phenethyl)-2,4,6-trihydroxybenzamide]",1.7 µM,14 µM,6.1 µg/mL
"O=C(NCCCc1ccc(Cl)cc1)c1c(O)cc(O)cc1O [Compound 0MTK204, N-(3-(4-chlorophenyl)propyl)-2,4,6-trihydroxybenzamide]",7 µM,8 µM,27 µg/mL
"O=C(NCCc1ccc(C(F)(F)F)cc1)c1c(O)cc(O)cc1O [Compound 0MTK207, 2,4,6-trihydroxy-N-(4-(trifluoromethyl)phenethyl)benzamide]",7.4 µM,13 µM,19 µg/mL
"O=C(NCCc1ccc(C(F)(F)F)cc1C(F)(F)F)c1c(O)cc(O)cc1O [Compound 0MTK208, N-(2,4-bis(trifluoromethyl)phenethyl)-2,4,6-trihydroxybenzamide]",7.2 µM,5 µM,11 µg/mL
"O=C(NCCc1ccc(Cl)cc1)c1c(O)c(Cl)c(O)c(Cl)c1O [Compound 0MTK221, 3,5-dichloro-N-(4-chlorophenethyl)-2,4,6-trihydroxybenzamide]",14 µM,98 µM,> 40 µg/mL
"O=C(NCCc1ccc(Cl)cc1)c1c(O)cc(O)c(Cl)c1O [Compound 0MTK222, 3-chloro-N-(4-chlorophenethyl)-2,4,6-trihydroxybenzamide]",6.8 µM,9 µM,> 40 µg/mL
"O=C(NCCc1ccc(C(F)(F)F)cc1)c1c(O)cc(O)c(Cl)c1O [Compound 0MTK223, 3-chloro-2,4,6-trihydroxy-N-(4-(trifluoromethyl)phenethyl)benzamide]",6.6 µM,10 µM,> 40 µg/mL
"O=C(NCCc1ccc(C(F)(F)F)cc1)c1c(O)c(Cl)c(O)c(Cl)c1O [Compound 0MTK224, 3,5-dichloro-2,4,6-trihydroxy-N-(4-(trifluoromethyl)phenethyl)benzamide]",25 µM,> 100 µM,> 40 µg/mL
"O=C(NCCc1ccc(Oc2ccccc2)cc1)c1c(O)c(Cl)c(O)c(Cl)c1O [Compound 0MTK230, 3,5-dichloro-2,4,6-trihydroxy-N-(4-phenoxyphenethyl)benzamide]",7.7 µM,35 µM,> 40 µg/mL
"O=C(NCCc1ccc(Oc2ccc(F)cc2)cc1)c1c(O)c(Cl)c(O)c(Cl)c1O [Compound 0MTK231, 3,5-dichloro-N-(4-(4-fluorophenoxy)phenethyl)-2,4,6-trihydroxybenzamide]",8.4 µM,31 µM,33 µg/mL
"O=C(NCCc1ccc(Oc2ccc(Cl)cc2)cc1)c1c(O)cc(O)c(Cl)c1O [Compound 0MTK232, 3-chloro-N-(4-(4-chlorophenoxy)phenethyl)-2,4,6-trihydroxybenzamide]",0.72 µM,8 µM,20 µg/mL
"O=C(NCCc1ccc(Oc2ccc(Cl)cc2)cc1)c1c(O)c(Cl)c(O)c(Cl)c1O [Compound 0MTK233, 3,5-dichloro-N-(4-(4-chlorophenoxy)phenethyl)-2,4,6-trihydroxybenzamide]",4.5 µM,23 µM,6.8 µg/mL
"O=C(NCCc1ccc(Oc2cc(Cl)cc(Cl)c2)cc1)c1c(O)cc(O)c(Cl)c1O [Compound 0MTK237, 3-chloro-N-(4-(3,5-dichlorophenoxy)phenethyl)-2,4,6-trihydroxybenzamide]",0.31 µM,3 µM,15 µg/mL
"O=C(NCCc1ccc(Oc2cc(Cl)cc(Cl)c2)cc1)c1c(O)c(Cl)c(O)c(Cl)c1O [Compound 0MTK238, 3,5-dichloro-N-(4-(3,5-dichlorophenoxy)phenethyl)-2,4,6-trihydroxybenzamide]",0.77 µM,3 µM,3.2 µg/mL
"O=C(NCCc1ccc(Oc2ccc(F)cc2)cc1)c1c(O)cc(O)c(Cl)c1O [Compound 0MTK240, 3-chloro-N-(4-(4-fluorophenoxy)phenethyl)-2,4,6-trihydroxybenzamide]",2.1 µM,15 µM,> 40 µg/mL
"O=C(NCCc1ccc(Oc2cccc(Cl)c2)cc1)c1c(O)cc(O)cc1O [Compound 0MTK256, N-(4-(3-chlorophenoxy)phenethyl)-2,4,6-trihydroxybenzamide]",0.65 µM,10 µM,9.1 µg/mL
"Cc1ccc(Oc2ccc(CCNC(=O)c3c(O)cc(O)cc3O)cc2)cc1 [Compound 0MTK257, 2,4,6-trihydroxy-N-(4-(p-tolyloxy)phenethyl)benzamide]",0.8 µM,11 µM,20 µg/mL
